This is an account of results in patent US20230048888A1, “USE OF TRIAZOLOTRIAZINE DERIVATIVE IN TREATMENT OF DISEASES” (ZHEJIANG VIMGREEN PHARMACEUTICALS, LTD., priority 2019, published 2023).

Where two headings read alike, the source gives them in different places.

Data set [1] concerns murine colon cancer MC38 cell line. The experiment in a line: Subcutaneous homotransplantation of murine colon cancer MC38 cell line in C57BL/6 female mice. Type of data set: in vivo. Conditions: for T/C (%) / TGI (%) / Tumor volume: Day 22. Here is the method:
The MC38 mouse colon cancer cell model is a commonly used model for verifying a pharmaceutical effect on the colon cancer. It is mostly used to study the occurrence and metastasis direction of the colorectal cancer, and has become a common approach to the pharmaceutical effect verification for tumors. The anti-tumor effect of the subcutaneous homotransplantation of a test drug in a murine colon cancer MC38 cell line of C57BL/6 female mouse model was evaluated.
MC38 cells were cultured in a DMEM culture solution containing 10% fetal bovine serum. The MC38 cells in the exponential growth phase were collected and resuspended in PBS to a suitable concentration for subcutaneous tumor inoculation in mice.
Female mice were subcutaneously inoculated with 1×10^6 MC38 cells on the right side. The day of inoculation was defined as Day 0. On the second day (Day 1) of […] cell inoculation, the mice were administered randomly according to body weight. The solution of Compound 22 was prepared at 3 mg/mL and 10 mg/mL respectively for later use.
Formula for calculating tumor volume: tumor volume (mm^3)=½×(a×b^2) (a representing a long diameter and b representing a short diameter);
Tumor proliferation rate, T/C %, was a percentage ratio of tumor volume or tumor weight between the treatment group and the control group at a certain time point. It was calculated with a formula was as follows:
T/C %=TTV/CTV×100% (TTV (TTV: the average TV of the treatment group at a specific time point;
All experimental results were represented as the average tumor volume±SEM (mean standard error). Statistical analysis between different groups were conducted to select the optimal drug treatment point (usually after the last dosage). A comparison was conducted with the independent sample T test method to determine if there is a significant difference in tumor volume between the treatment group ad the control group. All data were analyzed with SPSS 18.0. P<0.05 indicated a significant difference.

The nature of data set [2]: Pharmacokinetic evaluation of Compound 22 in female BALB/c mice in different vehicles. Particulars: mouse, plasma, po, 100 mg/kg, 100 mg/kg p.o. single; for half-life: read-out: T½ (converted). Format: in vivo. Here is the method:
BALB/c mice, female, 7-9 weeks old (the age of mice at the start of the experiment), weight: 19.2-22.1 g, […] (34 mice plus another 10 surplus mice). They were purchased from Shanghai Lingchang Biotechnology Co., Ltd. (LC), with animal certificate number: 2013001835211. Rearing environment: SPF level.
After single administration, plasma was collected from each group at 0.25 h, 0.5 h, 1 h, 2 h, 4 h, 6 h, 8 h and 24 h, with 3 mice at each time point, and the experiment was terminated after 24h. 10 remaining mice were used to collect blank plasma.

In data set [3] the test system is 6-OHDA-induced contralateral rotation. The experiment in a line: 6-OHDA-induced rat rotation experiment, first stage (number of rotations). Type of data set: in vivo, Wistar rats. The source says: After long-term use of levodopa, patients with Parkinson's disease are prone to drug resistance (end-of-dose phenomenon). That is, the duration of its pharmaceutical effect tends to gradually become shorter (shortened opening period), its efficacy will become weaker and weaker, and the symptoms of the patients are becoming more and more uncontrollable. By the combined use with the test compound, the efficacy of levodopa can be restored for patients with Parkinson's disease in the off phase, who have already experienced the end-of-dose phenomenon. The rat model of Parkinson's disease was constructed by fixed-point injection of 6-hydroxydopamine (6-OHDA) to damage the substantia nigra striatum, and then the animals were administrated with levodopa (L-DOPA)/Benserazide (BID) for a long term (3-4 weeks as planned).
There should be at least an interval of 1 day between rotation tests for respective doses. A total of 6 tests were carried out in the first stage.
[…] injection volume: each rat was injected with 4 μl of 6-OHDA solution (2.5 μg/μl) on the left medial forebrain bundle (MFB).
Coordinates for injecting […]: by taking the anterior fontanelle as a standard reference point and with reference to the stereotactic map of rat brain, the injection was performed on the left medial forebrain bundle at: anterior(A), −2.5 mm; lateral (L), +2.0 mm; ventral (V), −8.5 mm.
[…] injection speed: the injection speed was 1 μl/min; after injection, the needle was left in situ for 5 min, and then slowly withdrawn at a speed of 1 mm/min; and the wound was then sutured. Grouping and administration were carried out according to the method of experimental design.
In the first stage, only the number of rotations of the animal was tested, and only the rotation response time was tested in the second stage.
The test results are represented as “mean±standard deviation”. The data was statistically analyzed by the SPSS16.0 software package. One-way ANOVA, paired sample T test and independent sample T test were used for comparison, with P<0.05 showing a statistical difference.

[4] abbreviates: 30 mg/kg p.o. QD combined with Anti-PD-1 100 μg/animal i.p.
Setting [5] is: Group 1, vehicle 40% PEG400/60% water.
Where [6] appears, read: Group 2, vehicle 40% (2-hydroxypropyl)-β-cyclodextrin.

With `Nc1nc(NCCc2ccc(NC3COC3)cc2)nc2nc(-c3ccco3)nn12` [Compound 22, 2-(furan-2-yl)-N5-(4-(oxetan-3-ylamino)phenethyl)-[1,2,4]triazolo[1,5-a][1,3,5]triazine-5,7-diamine], in data set [1] (30 mg/kg p.o. QD), the “T/C (%)” value is listed as 66%, the “TGI (%)” value came to 34% and the Tumor volume amounted to 1205.60 ± 259.65 mm^3. Besides, in data set [1] (setting [4]), the “T/C (%)” value was 15%, the “TGI (%)” value turned out to be 85% and the Tumor volume came out at 268.89 ± 57.10 mm^3. In data set [1] (100 mg/kg p.o. QD), the “T/C (%)” value stood at 52%, the “TGI (%)” value was 48% and the Tumor volume stood at 951.28 ± 116.30 mm^3. Moreover, the “Animal death / changes in body weight” value in data set [1] (alone or combined with anti-PD-1 antibody) was “no animal death or significant changes in body weight”. Moreover, in data set [2] (setting [5]), the total exposure AUC(0-inf) was determined as 16100 ng·h/mL, the AUC(0-t) came out at 15900 ng·h/mL, the concentration peaked (Cmax) at 2080 ng/mL and the Tmax was found to be 1 h. Besides, the half-life in data set [2] (setting [5]) was 3.04 h. Further, in data set [2] (setting [6]), the AUC(0-inf) is 28500 ng·h/mL, the AUC(0-t) is 28400 ng·h/mL, the Cmax came to 5580 ng/mL and the time of peak concentration (Tmax) came out at 0.5 h. Further, in data set [2] (setting [6]), the half-life is 2.66 h.
For the compound `CC(=O)O.Nc1nc(NCCc2ccc(NC3COC3)cc2)nc2nc(-c3ccco3)nn12` [Acetate of Compound 22, 2-(furan-2-yl)-N5-(4-(oxetane-3-ylamino)phenethyl)-[1,2,4]triazolo[1,5-a][1,3,5]triazine-5,7-diamine acetate], the “Total number of rotations (60 min)” value in data set [3] (1 mg/kg oral + L-DOPA (5 mg/kg)/Benserazide (1.25 mg/kg) i.p.) is 41.4 ± 80.8; in data set [3] (3 mg/kg oral + L-DOPA (5 mg/kg)/Benserazide (1.25 mg/kg) i.p.), 36.6 ± 46.3; in data set [3] (10 mg/kg oral + L-DOPA (5 mg/kg)/Benserazide (1.25 mg/kg) i.p.) it was 109.4 ± 205.2; in data set [3] (30 mg/kg oral + L-DOPA (5 mg/kg)/Benserazide (1.25 mg/kg) i.p.), 285.2 ± 283.8; in data set [3] (100 mg/kg oral + L-DOPA (5 mg/kg)/Benserazide (1.25 mg/kg) i.p.), 379.3 ± 326.4; in data set [3] (single oral 1 mg/kg alone) it was 7.7 ± 5.6. Also, the “Total number of rotations (60 min)” value is on record as 17.1 ± 18.7 in data set [3] (single oral 3 mg/kg alone), 11.6 ± 13.9 in data set [3] (single oral 10 mg/kg alone), 30.7 ± 22.5 in data set [3] (single oral 30 mg/kg alone) and 35.2 ± 18.8 in data set [3] (single oral 100 mg/kg alone).
